Article PMC9594048, “Targeting a Multidrug-Resistant Pathogen: First Generation Antagonists of Burkholderia cenocepacia’s BC2L-C Lectin” (ACS Chemical Biology, 2022)
Read-outs that look alike come from different tables or passages of the source.

Key:
[1] = molecular target: T1, BC2L-C-Nt (rBC2L-CN2) (Burkholderia cenocepacia, UniProt B4EH86); experiment: Surface plasmon resonance (SPR) affinity on BC2L-C-Nt-coated chip; format: binding; details: 25 °C, rBC2L-CN2 immobilized on CM5 chip, multi-cycle affinity; SD from duplicates
T1 sequence (B4EH86 entry or part of it): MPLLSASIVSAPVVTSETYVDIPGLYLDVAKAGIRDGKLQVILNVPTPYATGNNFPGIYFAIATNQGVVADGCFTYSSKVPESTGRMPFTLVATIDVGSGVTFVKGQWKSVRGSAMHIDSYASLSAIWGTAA
Method: Experiments were performed on a BIACORE X100 instrument (GE Healthcare) at 25 °C in running buffer 10 mM HEPES pH 7.4, 150 mM NaCl, and 0.05% Tween 20, adjusted to include 8% DMSO when required. rBC2L-CN2 was immobilized onto CM5 chips (BIACORE) following the amine coupling procedure detailed in the Supporting Information. The analytes were dissolved in the running buffer at increasing concentrations (range: 3.28–3500 μM) and subjected to multi-cycle affinity studies (300 s association, 300 s dissociation, flow rate 5 μL/min). Injections of compounds at increasing concentrations onto the immobilized rBC2L-CN2 were followed by regeneration of the surface: 10 mM fucose in running buffer and then running buffer at 5 μL/min (100 and 150 s, respectively) after each analyte association/dissociation. For the higher concentrations, regeneration was secured by performing one or more runs replacing analyte by running buffer. Duplicates were performed for all ligands. Binding affinity (KD) was measured after subtracting the channel 1 reference (no immobilized protein) and subtracting a blank injection (running buffer—zero analyte concentration). Data evaluation and curve fitting were performed using the provided BIACORE X100 evaluation software (version 2.0). The protein-coated chip was stored at 4 °C in running buffer and was functional up to 8 weeks after fabrication, as proven by experimentation. […]
3.2. Surface plasmon Resonance
Experiments were performed on a BIACORE X100 instrument (GE Healthcare) at 25 °C in running buffer 10 mM HEPES pH 7.4, 150 mM NaCl and 0.05% Tween 20, adjusted to include 8% DMSO when indicated. rBC2L-CN2 was immobilized onto CM5 chips (BIACORE) following the amine […]
• Activation of the chip by three injections of a NHS/EDC mixture at 10 μL/min for 540s, until a minimum of 300 RU was observed on both channels.
• Injection of rBC2L-CN2 (0.5 mg/mL) dissolved in 10 mM sodium acetate pH 4.5 onto channel 2 (contact time of 540s, flow rate of 10 μL/min), until a minimum of 7000 RU was […]
• Inactivation of both channels by injecting a 1M ethanolamine (pH 8.5) solution at 5 μL/min for 1080s, achieving over 400 and 7000 RU for channel 1 and 2, respectively.
The analytes were dissolved in the running buffer at increasing concentrations (range: 3.28 − 3500 μM) and subjected to multi-cycle affinity studies (300s association, 300s dissociation, flow rate 5 μL/min). Injections of compounds at increasing concentrations onto the immobilized rBC2L-CN2 were followed by regeneration of the surface: 10 mM fucose in running buffer, then running buffer at 5 μL/min (100s and 150s, respectively) after each analyte association/dissociation. For the higher concentrations, regeneration was secured by performing one or more runs replacing analyte by running buffer. Duplicates were performed for all ligands. Binding affinity (KD) was measured after subtracting the channel 1 reference (no immobilized protein) and subtracting of a blank injection (running buffer - zero analyte concentration). Data evaluation and curve fitting was performed using the provided BIACORE X100 evaluation software (version 2.0). […]

[2] = molecular target: T1, BC2L-C-Nt (rBC2L-CN2); experiment: Isothermal titration calorimetry (ITC); format: binding; details: for Kd: 25 °C
Method: All experiments were performed at 25 °C with an ITC200 isothermal titration calorimeter (Microcal-Malvern Panalytical, Orsay, France). The protein rBC2L-CN2 and its ligands were dissolved in a buffer composed of 20 mM Tris HCl pH 7.0 and 100 mM NaCl. The 200 μL sample cell containing rBC2L-CN (concentrations ranging from 200 to 400 μM) was subjected to injections of ligand solution: 20 to 39 injections of 1 μL or 70 injections of 0.5 μL (5 to 50 mM, chosen depending on the ligand) at intervals of 100, 120, or 200 s, while stirring at 850 rpm. Control experiments were performed by repeating the same protocol, but injecting the ligand into buffer solution. The supplied software Origin 7 or MicroCal PEAQ-ITC was used to fit the experimental data to a theoretical titration curve allowing the determination of affinity.
3. Ligand evaluation materials and methods
3.1. Isothermal Titration Calorimetry
All experiments were performed at 25 °C with an ITC200 isothermal titration calorimeter (Microcal - Malvern Panalytical, Orsay, France). The protein rBC2L -CN2 and its ligands were dissolved in a buffer composed of 20 mM Tris HCl pH 7.0 and 100 mM NaCl. The 200 µL sample cell containing rBC2L-CN (concentrations ranging from 200 to 400 µM) was subjected to injections of ligand solution: 20 to 39 injections of 1 µL or 70 injections of 0.5 µL (5 to 50 mM, chosen depending on the ligand) at intervals of 100, 120 or 200s while stirring at 850 rpm. Control experiments were performed by repeating the same protocol, but injecting the ligand into buffer solution. The supplied software Origin 7 or MicroCal PEAQ-ITC was used to fit the experimental data to a t heoretical titration curve allowing the determination of affinity (i.e., association constant, K a), binding enthalpy (∆H), and stoichiometry (n). Values for free energy change (∆G) and entropy contributions (T∆S) […]
1.K-1. For experiments in ligand excess, the stoichiometry was fixed to 1. […]

[3] = Solubility (qualitative remark); format: physicochemical; details: prevented affinity evaluation by ITC
[4] = molecular target: T1, BC2L-C-Nt (rBC2L-CN2); experiment: biochemical; format: binding; details: for Tonset / Tm1 / Tm2: protein 14.3 μM, ligand 143 μM; for Tonset: SD from duplicates; for Tm1: first thermal event, protein alone 82.2 °C; for Tm2: main thermal event, protein alone 84.5 °C; for ΔTm2: shift of main thermal event vs protein alone
Method: Experiments were performed on a Microcal PEAQ-DSC instrument (Malvern Panalytical, Orsay, France). A buffer composed of 20 mM Tris HCl pH 7.0 and 100 mM NaCl was used to dilute the protein rBC2L-CN2 and its ligands to concentrations 14.3 and 143 μM, respectively. Samples of 250 μL were loaded, while the reference cell was filled with the matching buffer (aforementioned buffer, ligands when relevant). […] The data were acquired on “Low” feedback mode. The supplied software MicroCal PEAQ-DSC Software 1.53 was used to fit the experimental data. […] The profile obtained was fitted with a “NonTwoState” model, accounting for two thermal events. Each experiment was performed in duplicates, and their averages were calculated by the software.
3. […]
3.3. Differential Scanning Calorimetry
Experiments were performed on a Microcal PEAQ-DSC instrument (Malvern Panalytical, Orsay, […]

[5] = 20 mM Tris HCl pH 7.0, 100 mM NaCl, SD from duplicates

Row | SMILES | Kd [1] [µM] | Kd [2, 5] [µM] | other results
1 | C[C@@H]1O[C@H](NC(=O)c2ccc(C(C)(C)CN)cc2)[C@@H](O)[C@H](O)[C@@H]1O [8a] | 940 ± 10 | 2550 ± 1000 | –
2 | CNCc1ccc(C(=O)N[C@H]2O[C@@H](C)[C@@H](O)[C@@H](O)[C@@H]2O)cc1 [8b] | 1570 ± 60 | 3660 ± 210 | –
3 | C[C@@H]1O[C@H](NC(=O)c2ccc(-c3cccc(N)c3)o2)[C@@H](O)[C@H](O)[C@@H]1O [8c] | 2360 ± 970 | – | solubility [3]: very low and poor
4 | C[C@@H]1O[C@H](NC(=O)c2ccc3cc[nH]c3c2)[C@@H](O)[C@H](O)[C@@H]1O [8d] | 3420 ± 220 | 3490 ± 1300 | –
5 | C[C@@H]1O[C@H](NC(=O)c2ccc3[nH]ccc3c2)[C@@H](O)[C@H](O)[C@@H]1O [8e] | 1420 ± 20 | – | activity compared with methyl-fucoside 13 (ITC) ([2]; ITC KD compared with […]): better activity than methyl-fucoside 13
6 | C[C@@H]1O[C@H](n2cc(-c3ccc(C(C)(C)CN)cc3)nn2)[C@@H](O)[C@H](O)[C@@H]1O [12a] | 1190 ± 50 | 2490 ± 60 | –
7 | CNCc1ccc(-c2cn([C@H]3O[C@@H](C)[C@@H](O)[C@@H](O)[C@@H]3O)nn2)cc1 [12b] | 2450 ± 20 | 6250 ± 720 | –
8 | C[C@@H]1O[C@H](C#Cc2ccc(C(C)(C)CN)cc2)[C@@H](O)[C@H](O)[C@@H]1O [22a] | 1330 ± 150 | 280 ± 10 | Kd [2]: 281 µM; affinity increase from αMeFuc (ITC) ([2]; relative to […]): ~10 fold; Tonset [4]: 73.29 ± 1.54 °C; Tm1 [4]: 82.43 ± 0.02 °C; Tm2 [4]: 84.71 ± 0.01 °C; ΔTm at 143 µM ([4]; read-out: ΔTm1): 0.21 °C; ΔTm at 143 µM ([4]; read-out: ΔTm2): 0.17 °C
9 | CNCc1ccc(C#C[C@H]2O[C@@H](C)[C@@H](O)[C@@H](O)[C@@H]2O)cc1 [22b] | 7850 ± 3390 | 1240 ± 70 | –
10 | C[C@@H]1O[C@H](C#CC(O)c2ccc3ncccc3c2)[C@@H](O)[C@H](O)[C@@H]1O (stereo partly shown) [22f] | 301 ± 1 | – | Kd [2]: 490 µM
11 | C[C@@H]1O[C@H](C#Cc2ccc(CNC(=N)N)cc2)[C@@H](O)[C@H](O)[C@@H]1O [22g] | 1300 ± 600 | 910 ± 30 | –
12 | CNCc1ccc(/C=C/[C@H]2O[C@@H](C)[C@@H](O)[C@@H](O)[C@@H]2O)cc1 [28b] | 1020 ± 20 | 3370 ± 400 | –
13 | CC(=O)N[C@H]1C(O)O[C@H](CO)[C@@H](O)[C@@H]1O[C@@H]1O[C@H](CO)[C@H](O)[C@H](O)[C@H]1O[C@@H]1O[C@@H](C)[C@@H](O)[C@@H](O)[C@@H]1O (stereo partly shown) [H-type 1 trisaccharide, Fucα(1–2)Galβ(1–3)GlcNAc] | – | – | Tonset [4]: 74.09 ± 0.26 °C; Tm1 [4]: 82.65 ± 0.01 °C; Tm2 [4]: 84.92 ± 0.01 °C; ΔTm1 ([4]; shift of first thermal event vs protein alone): 0.44 °C; ΔTm2 [4]: +0.38 °C; ΔTm2 ([4]; listed as H-type 1): 0.38 ± 0.01 °C
